Results on eleven compounds are retold here after patent US12686668B2, “Leukotriene synthesis inhibitors” (Naegis Pharmaceuticals Inc., priority 2019, dated 2026).

Structures are written as SMILES. Like-named read-outs stand apart in the source and are kept apart here.

In general, inhibition refers to the relative decrease from the control value, in per cent. A word on the IC50: it is the concentration that gives 50% inhibition. The low end stands for greater potency in that assay, the high end for weaker potency in that assay.

The target in experiment [1] is T1, recombinant human leukotriene A4 hydrolase enzyme (Homo sapiens, UniProt P09960).
T1 construct: purchased Cayman Chemical 10007817
T1 sequence (P09960 1-611): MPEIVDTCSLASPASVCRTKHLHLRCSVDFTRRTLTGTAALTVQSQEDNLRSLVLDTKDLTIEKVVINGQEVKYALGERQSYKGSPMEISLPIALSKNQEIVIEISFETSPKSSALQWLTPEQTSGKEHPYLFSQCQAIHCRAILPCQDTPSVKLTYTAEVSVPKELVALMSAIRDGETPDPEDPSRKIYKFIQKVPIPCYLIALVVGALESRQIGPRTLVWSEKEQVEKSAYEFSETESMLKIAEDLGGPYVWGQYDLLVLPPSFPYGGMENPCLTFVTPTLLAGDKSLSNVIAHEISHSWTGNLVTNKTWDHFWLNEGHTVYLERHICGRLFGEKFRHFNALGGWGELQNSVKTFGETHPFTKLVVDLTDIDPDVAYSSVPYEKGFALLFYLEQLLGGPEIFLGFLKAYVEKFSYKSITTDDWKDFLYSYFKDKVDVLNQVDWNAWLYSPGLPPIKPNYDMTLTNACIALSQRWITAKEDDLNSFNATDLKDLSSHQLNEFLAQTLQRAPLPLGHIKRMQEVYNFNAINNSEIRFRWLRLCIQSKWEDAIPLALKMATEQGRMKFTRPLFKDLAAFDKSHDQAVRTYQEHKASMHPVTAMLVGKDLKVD
Kind of experiment: Amino-peptidase assay, PGP. The format is biochemical. The settings on record: concentration not given. The method, then: A series of compound concentrations were pre-incubated with 50 ng of recombinant human leukotriene A4 hydrolase enzyme (Cayman Chemical, 10007817) in 50 L assay buffer (50 mM Tris-HCl, 100 mM KCl). The reaction was stimulated by adding 50 L 1 mM proline-glycine-proline (Bachem, H-7284) and incubated for 30 minutes at 37° C. The reaction was stopped with the addition of 150 μL of glacial acetic acid. The amount of free proline released from the peptide was detected through a reaction with ninhydrin. 150 μL of 25 mg/mL ninhydrin (BDH, B10132) in 60:40 acetic acid/water was added to each sample, and boiled for 30 minutes at 100° C. and once samples had cooled to room temperature, 350 μL of toluene was added to extract the ninhydrin reaction product. The amount of free proline was determined by comparing the absorbance at 520 nm to the L-proline (Sigma Aldrich, 81709) reference standard. Inhibition of free proline production was calculated based on control samples.

Experiment [2] deals with T1, recombinant human leukotriene A4 hydrolase enzyme. Kind of experiment: Amino-peptidase assay, alanine-4-nitroanalide. The settings on record: negative values = augmented peptidase activity, read-out: % Inhibition aminopeptidase-Alanine-4-nitroanalide activity of LTA4H (3 μM). It counts as biochemical. Summed up:
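Compounds pre-incubated in the dark with recombinant human LTA4H (0.5 μg) in 50 mM Tris-HCl, 100 mM KCl; reaction started with alanine-4-nitroanilide (6 mM solution). Aminopeptidase rate followed as A405 from 4-nitroaniline, referenced to a standard; inhibition calculated versus controls, with negative values indicating augmented activity.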

In experiment [3] the test system is LTB4 production in porcine or human whole blood. Kind of experiment: Whole blood HPLC assay, inhibition of LTB4 production. Conditions: 5 point curve, porcine or human whole blood (not specified). The format is cell-based. The method, then: Porcine or human whole blood (1 mL) was pre-incubated with a series of concentrations of compound solubilized in DMSO for 30 minutes. Production of leukotrienes were stimulated with the addition of 20 μM calcium ionophore (A23187), diluted from a 4 mM DMSO stock in HBSS, and incubated at room temperature for 20 minutes. In porcine blood 20 μM arachidonic acid was added in addition to the calcium ionophore. The blood was centrifuged at 2,000 rpm for 15 minutes, and the plasma fraction removed for further processing. Plasma samples were diluted with 500 μL acidified water (HCl pH 3.0) and loaded onto C18 SEP-PAK columns (Canadian Lifesciences IS12000) for solid phase extraction. The leukotrienes were analyzed by HPLC using an ACE C18 column (4.5 mm×150 mm, 5 m) eluted with acetonitrile/methanol/water mixture with H3PO4, pH 3.5 (37:26:37) with a flow rate of 1.8 mL/min. The amount of LTB4 (Cayman Chemical, 20110) was calculated based on reference standards and the level of inhibition of LTB4 production induced by the test compounds was calculated relative to control samples. The results provided in Table 3 are IC50 values calculated based on a 5 point curve, where Compound No. refers to the compounds identified in Table 1.

Experiment [4] deals with LTB4 production in MC/9 cells. Nature of the experiment: MC/9 HPLC assay, inhibition of LTB4 production. It counts as cell-based. Conditions: Mus musculus. The method, boiled down: (§1)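 MC/9 cells (3×10^6 in HBSS) pre-incubated 30 min with compound, then stimulated 20 min at room temperature with 1 μM A23187. After methanol quench and C18 solid-phase extraction, LTB4 and LTC4 quantified by HPLC against reference standards; inhibition relative to control samples.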

The test system of experiment [5] is LTC4 production in MC/9 cells. Kind of experiment: MC/9 HPLC assay, inhibition of LTC4 production. It counts as cell-based. Conditions: Mus musculus; for inhibition at 3 µM: MC9, 3 μM, A23187 stimulated. The method, boiled down:
as §1

In experiment [6] the test system is AA-induced ear edema. Kind of experiment: Arachidonic acid (AA) induced mouse ear edema model. The settings on record: 4 hrs and 1 hr before AA 2 mg/ear, mice; for % Inhibition AA-Induced ear edema (0.3 mg/ear): topical 0.3 mg/ear; for % Inhibition AA-Induced ear edema (1 mg/ear): topical 1 mg/ear. It counts as in vivo, CD-1 mice. As for the experimental part: One group serves as a control and receives 20 μL of vehicle applied to the pinna of each ear (10 μL to the inside and 10 μL to the outside of the pinna). One or more additional groups serve as test groups. The test compound was applied to the pinna of one ear of the mouse in a 20 μL volume (10 μL to the inside and 10 μL to the outside of the pinna). Test compound or control vehicle (acetone/1% DMSO) was applied topically to the right ear 4 and 1 hour before the application of 2 mg/ear AA as a stimulus to both the inner and outer surfaces of CD-1 mice. The left ears received vehicle (acetone/1% DMSO) alone. The animal was lightly anesthetized again using isofluorane to enable application of the stimulus. For the control group, arachidonic acid (2 mg/ear) was applied as the stimulus to the pinna of one ear only, in a total volume of 20 μL of acetone (10 μL applied to the inside and 10 μL to the outside of the pinna). The other ear received 20 μL of acetone. This served to determine the increase in ear weight due to arachidonic acid in the absence of test compounds. For the test groups, arachidonic acid (2 mg/ear) was applied as the stimulus to the pinna of each ear, in a total volume of 20 μL of acetone (10 μL applied to the inside and 10 μL to the outside of the pinna). The animal was allowed to recover after application of the stimulus in each case. After 60 minutes the animal was euthanized and a standard biopsy sample was taken from each ear using a 6 mm skin biopsy punch (Acuderm). Ear edema was determined by the increase in weight of the tissue due to accumulation of fluid as a result of plasma extravasation. The ears were weighed separately using a balance suitable to record 0.1 mg. For the control group, the difference in ear weights was determined by subtracting the weight of the unstimulated ear from the stimulated ear, and this was a measure of the increase in ear weight due to edema. The percentage increase in ear weight was determined by dividing the increase in stimulated ear weight by the unstimulated ear weight and multiplying by 100. For the test groups, the difference in ear weights was determined by subtracting the weight of the untreated ear from the weight of the ear treated with test compound. The percent inhibition of the increase in ear weight for ears treated with the test compound was estimated by first subtracting the mean ear weight of the untreated controls from each tissue to determine the increase in tissue weight due to application of the arachidonic acid. The percent inhibition=1−(test drug stimulated ear (mg)/control stimulated ear (mg))×100. In Table 5, the data from inhibition of AA-induced ear edema in mice by topical application of compounds is provided. Compounds (0.3 or 1 mg/ear) were applied topically to the ear 4 hrs and 1 hr prior to application of arachidonic acid (AA; 2 mg/ear).

Setting [7] is: MC9, Table 2 column 4, no concentration in head (1 μM according to b732), read-out: % Inhibition LTB4.
Setting [8] is: MC9, Table 2 column 3, no concentration in head (1 μM according to b732), read-out: % Inhibition LTC4.
Where [9] appears, read: MC9, 1 μM, read-out: % inhibition LTB4 (1 μM).
The mark [10] stands for this setting: MC9, 1 μM, read-out: % inhibition LTC4 (1 μM).

In the case of `COc1cc(CCC(C)(O)C(F)(F)F)ccc1OCc1ccc2ccccc2n1` (centres unmarked) [Compound 184, 1,1,1-trifluoro-4-[3-methoxy-4-(quinolin-2-ylmethoxy)phenyl]-2-methylbutan-2-ol], the “% Inhibition aminopeptidase-PGP activity of LTA4H” value in experiment [1] is reported as 25-50%. Moreover, in experiment [2], the inhibition at 3 µM was less than 25%. In addition, the IC50 in experiment [3] lay within 100 to 1000 nM.

Turning to `CC(O)(CCc1ccc(Oc2nc3ccccc3o2)cc1)c1ccccc1` (centres unmarked) [Compound 147, 4-[4-(1,3-benzoxazol-2-yloxy)phenyl]-2-phenylbutan-2-ol], the inhibition at 1 µM in experiment [4] (setting [7]) was greater than 90%; in experiment [5] (setting [8]) it was 30 to 50%. Further, the “% Inhibition aminopeptidase-PGP activity of LTA4H” value in experiment [1] is 25-50%. Besides, in experiment [2], the inhibition at 3 µM was in the range of 50 to 75%.

For `CCC(O)(CCc1ccc(Oc2nc3ccccc3s2)c(OC)c1)C(F)(F)F` (centres unmarked) [Compound 103, 1-[4-(1,3-benzothiazol-2-yloxy)-3-methoxyphenyl]-3-(trifluoromethyl)pentan-3-ol], the inhibition at 1 µM in experiment [4] (setting [9]), in experiment [4] (setting [7]), in experiment [5] (setting [10]) and in experiment [5] (setting [8]) was 50 to 70% in each case. Further, the inhibition at 3 µM in experiment [5] is greater than 90%. Besides, the “% Inhibition AA-Induced ear edema (0.3 mg/ear)” value in experiment [6] is on record as 30-50%. Moreover, the “% Inhibition AA-Induced ear edema (1 mg/ear)” value in experiment [6] was 70-90%. In addition, in experiment [3], the concentration for half-maximal inhibition (IC50) was 1000 to 10000 nM.

For `CCC(O)(CCc1ccc(Oc2nc3ccccc3s2)cc1)C(F)(F)F` (centres unmarked) [Compound 150, 1-[4-(1,3-benzothiazol-2-yloxy)phenyl]-3-(trifluoromethyl)pentan-3-ol], the inhibition at 1 µM in experiment [4] (setting [9]) lay within 50 to 70%; in experiment [4] (setting [7]), 50 to 70%; in experiment [5] (setting [10]), 10 to 30%; in experiment [5] (setting [8]), 10 to 30%. In addition, the “% Inhibition aminopeptidase-PGP activity of LTA4H” value in experiment [1] is recorded as less than 25%. Also, the results for the inhibition at 3 µM in experiment [5] and in experiment [2] were 70 to 90% and 25 to 50%, respectively. Further, the concentration for half-maximal inhibition (IC50) in experiment [3] was 1000 to 10000 nM.

With `CCC(=O)CCc1ccc(Oc2nc3ccccc3s2)c(Cl)c1` [Compound 149, 1-[4-(1,3-benzothiazol-2-yloxy)-3-chlorophenyl]pentan-3-one], the inhibition at 1 µM in experiment [4] (setting [7]) is 50 to 70%; in experiment [5] (setting [8]), 30 to 50%. Besides, the “% Inhibition aminopeptidase-PGP activity of LTA4H” value in experiment [1] is given as 25-50%. Besides, the inhibition at 3 µM in experiment [2] was less than 25%.

`CCC(O)(CCc1ccc(Oc2nc3ccc(F)cc3s2)c(OC)c1)C(F)(F)F` (centres unmarked) [Compound 108, 1-{4-[(6-fluoro-1,3-benzothiazol-2-yl)oxy]-3-methoxyphenyl}-3-(trifluoromethyl)pentan-3-ol]: the inhibition at 1 µM in experiment [4] (setting [7]) is greater than 90%. In addition, the inhibition at 3 µM in experiment [5] fell in the range of 50 to 70%. Besides, the inhibition at 1 µM in experiment [5] (setting [8]) lay within 70 to 90%. In experiment [6], the “% Inhibition AA-Induced ear edema (0.3 mg/ear)” value was less than 10% and the “% Inhibition AA-Induced ear edema (1 mg/ear)” value is 30-50%. Moreover, the IC50 in experiment [3] lay in the range of 1000 to 10000 nM.

On to `CCC(=O)CCc1ccc(Oc2nc3ccccc3s2)c(F)c1` [Compound 152, 1-[4-(1,3-benzothiazol-2-yloxy)-3-fluorophenyl]-pentan-3-one], for which the inhibition at 1 µM was 50 to 70% in experiment [4] (setting [7]) and 30 to 50% in experiment [5] (setting [8]). For the same compound, the “% Inhibition aminopeptidase-PGP activity of LTA4H” value in experiment [1] was 25-50%. For the same compound, the inhibition at 3 µM in experiment [5] was 30 to 50%; in experiment [2] it was less than 25%.

As to `CNC(c1ccc(Oc2nc3ccccc3s2)cc1)C(F)(F)F` (centres unmarked) [Compound 178, 1-[4-(1,3-benzothiazol-2-yloxy)phenyl]-2,2,2-trifluoro-N-methylethanamine], the “% Inhibition aminopeptidase-PGP activity of LTA4H” value in experiment [1] was 70-90%. Further, the inhibition at 3 µM in experiment [5] is less than 10%; in experiment [2] it was 70 to 90%.

Regarding `CC(O)(c1ccc(Oc2nc3c(F)cc(F)cc3s2)cc1)C(F)(F)F` (centres unmarked) [Compound 181, 2-{4-[(4,6-difluoro-1,3-benzothiazol-2-yl)oxy]phenyl}-1,1,1-trifluoropropan-2-ol], in experiment [1], the “% Inhibition aminopeptidase-PGP activity of LTA4H” value was greater than 75%. In addition, the inhibition at 3 µM in experiment [5] was less than 10%; in experiment [2] it was 0 to 50%.

As to `CCC(O)CCc1ccc(Oc2nc3ccccc3s2)c(OCC2CC2)c1` (centres unmarked) [Compound 187, 1-[4-(1,3-benzothiazol-2-yloxy)-3-(cyclopropylmethoxy)-phenyl]-pentan-3-ol], the “% Inhibition aminopeptidase-PGP activity of LTA4H” value in experiment [1] is given as 50-75%. For the same compound, the inhibition at 3 µM in experiment [5] was 50 to 70%; in experiment [2], greater than 75%.

In the case of `CC(CCc1ccc(OCc2ccc3ccccc3n2)cc1)N1CCCC1` (centres unmarked) [Compound 190], the “% Inhibition aminopeptidase-PGP activity of LTA4H” value in experiment [1] is reported as 25-50%. The inhibition at 3 µM in experiment [5] is 30 to 50%; in experiment [2], less than 25%.
